In patent US20180353524A1, “CANCER TREATMENT USING 2-DEOXY-2-FLUORO-L-FUCOSE IN COMBINATION WITH A CHECKPOINT INHIBITOR” (SEATTLE GENETICS, INC., priority 2015, published 2018):

Tested on: CMV reactive human PMBCs
Test: In vitro 2FF and anti-PD1 antibody combination in human PBMCs (IFNγ, IL12p70)
Settings: 1 μg/mL anti-PD1 (Pembrolizumab) added to co-culture of 2FF matured T-cells, DCs and CMV antigen
Method: CMV reactive human PMBCs from a CMV positive donor (Astarte™ Biologics) were thawed, plated into a 6-well plate and cultured overnight in DC media (30% DMEM 70% X-vivo+2 mM glutamax+10% ATB serum+1% PS). The following day the supernatant was collected to isolate T-cells and the adhering cells were washed in media and then replenished with 2 mL media supplemented with IL4 (100 ng/μL) and GMCSF (200 ng/μL) per well to differentiate and proliferate the adhering monocytes into DCs. The plate was incubated for 4-5 days and then cells were moved into a T25 flask. Each time the cells were passaged (every 2-3 days) new cytokines were given. The T-cells in the supernatant were isolated using StemSep human T-cell enrichment kit (Stemcell technologies). The T-cells were then resuspended in T-cell media (RPMI+10% Fetal calf serum, 1% PS) and spilt into two T25 flasks (with or without 100-200 μM 2FF). CD3CD28 antibody coated beads (Miltenyi Biotec) (20 μL/flask) were added to activate the T-cells. After 24 h IL2 was added (100 ng/μL). Each time the cells were passaged new IL2 and 2FF were added. […]
IFNγ and IL12p70 in the supernatants from 5 day co-cultures were measured using a Lumenix assay and the concentration of each cytokine was calculated using an internal standard curve.

For “Pembrolizumab [anti-PD1, reference compound]”, the “antigen specific response (IFNγ, IL12p70) of 2FF matured T-cells on addition of anti-PD1” value was “further enhances the antigen specific response”.
